# Data: PubChem BioAssay (NCI)
#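 Tested at 5 concentrations; 48 h exposure; 96-well plates; endpoints linearly interpolated, else capped at highest concentration. GI50 is the concentration that inhibits growth by half. TGI: total growth inhibition.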
# How the values were obtained:
# Assay in all cases: growth of human tumour cells (NCI), 48 h
# [1] = system: A498 renal
# [2] = system: CCRF-CEM leukemia
# [3] = system: COLO 205 colon
# [4] = system: DU-145 prostate
# [5] = system: HL-60(TB) leukemia
# [6] = system: K-562 leukemia
# [7] = system: KM12 colon
# [8] = system: LOX IMVI melanoma
# [9] = system: MDA-N
# [10] = system: NCI-H226 lung
# [11] = system: NCI-H23 lung
# [12] = system: OVCAR-3 ovarian
# [13] = system: PC-3 prostate
# [14] = system: RPMI-8226 leukemia
# [15] = system: SK-OV-3 ovarian
# [16] = system: SNB-75 CNS
# [17] = system: SW-620 colon
# [18] = system: UO-31 renal
# [19] = system: 786-0 renal
# [20] = system: A549 NSCLC
# [21] = system: CAKI-1 renal
# [22] = system: EKVX NSCLC
# [23] = system: HCC-2998 colon
# [24] = system: HCT-15 colon
# [25] = system: HOP-62 NSCLC
# [26] = system: HT29 colon
# [27] = system: IGROV1 ovarian
# [28] = system: M14 melanoma
# [29] = system: MALME-3M melanoma
# [30] = system: MCF7 breast
# [31] = system: MDA-MB-231 breast
# [32] = system: MOLT-4 leukemia
# [33] = system: OVCAR-8 ovarian
# [34] = system: RXF 393 renal
# [35] = system: SF-295 CNS
# [36] = system: SK-MEL-28 melanoma
# [37] = system: SK-MEL-5 melanoma
# [38] = system: SN12C renal
# [39] = system: SR leukemia
# [40] = system: T-47D breast
# [41] = system: TK-10 renal
# [42] = system: UACC-257 melanoma
# [43] = system: UACC-62 melanoma
# [44] = system: ACHN renal
# [45] = system: BT-549 breast
# [46] = system: HCT-116 colon
# [47] = system: HOP-92 NSCLC
# [48] = system: HS 578T breast
# [49] = system: MDA-MB-435
# [50] = system: NCI-H460 lung
# [51] = system: NCI-H522 lung
# [52] = system: NCI/ADR-RES ovarian
# [53] = system: OVCAR-4 ovarian
# [54] = system: OVCAR-5 ovarian
# [55] = system: SF-268 CNS
# [56] = system: SF-539 CNS
# [57] = system: SK-MEL-2 melanoma
# [58] = system: SNB-19 CNS
# [59] = system: U251 CNS
compound,measurement,setting,value
CN(C)CCOc1ccc2[nH]c(C(=O)N3CC(CCl)c4c3cc([N+](=O)[O-])c3ccccc43)cc2c1 (stereo not drawn),TGI,[1],24.5 µM
same,TGI,[2],> 100 µM
same,TGI,[3],> 100 µM
same,TGI,[4],20.2 µM
same,TGI,[5],> 100 µM
same,TGI,[6],> 100 µM
same,TGI,[7],3.2 µM
same,TGI,[8],> 100 µM
same,TGI,[9],48.5 µM
same,TGI,[10],> 100 µM
same,TGI,[11],> 100 µM
same,TGI,[12],3.68 µM
same,TGI,[13],> 100 µM
same,TGI,[14],> 100 µM
same,TGI,[15],85.5 µM
same,TGI,[16],3.77 µM
same,TGI,[17],> 100 µM
same,TGI,[18],> 100 µM
CC(C)(Oc1ccc(C(=O)c2ccc(Cl)cc2)cc1Cl)C(=O)N1CCN(CCO)CC1,TGI,[19],> 10 µM
same,TGI,[20],> 10 µM
same,TGI,[21],> 10 µM
same,TGI,[2],> 10 µM
same,TGI,[3],> 10 µM
same,TGI,[4],> 10 µM
same,TGI,[22],> 10 µM
same,TGI,[23],> 10 µM
same,TGI,[24],> 10 µM
same,TGI,[5],> 10 µM
same,TGI,[25],> 10 µM
same,TGI,[26],> 10 µM
same,TGI,[27],> 10 µM
same,TGI,[6],> 10 µM
same,TGI,[7],> 10 µM
same,TGI,[8],> 10 µM
same,TGI,[28],> 10 µM
same,TGI,[29],> 10 µM
same,TGI,[30],> 10 µM
same,TGI,[31],> 10 µM
same,TGI,[9],> 10 µM
same,TGI,[32],> 10 µM
same,TGI,[11],> 10 µM
same,TGI,[33],> 10 µM
same,TGI,[13],> 10 µM
same,TGI,[14],> 10 µM
same,TGI,[34],> 10 µM
same,TGI,[35],> 10 µM
same,TGI,[36],> 10 µM
same,TGI,[37],> 10 µM
same,TGI,[15],> 10 µM
same,TGI,[38],> 10 µM
same,TGI,[16],> 10 µM
same,TGI,[39],> 10 µM
same,TGI,[17],> 10 µM
same,TGI,[40],> 10 µM
same,TGI,[41],> 10 µM
same,TGI,[42],> 10 µM
same,TGI,[43],> 10 µM
COc1ccc2nc3cc(Cl)ccc3c(NCCNCC(O)CO)c2c1 (stereo not drawn),GI50,[19],2.34 µM
same,TGI,[19],12.3 µM
same,GI50,[1],0.245 µM
same,TGI,[1],2.64 µM
same,GI50,[20],3.33 µM
same,TGI,[20],14.1 µM
same,GI50,[44],2.27 µM
same,TGI,[44],13.3 µM
same,GI50,[45],6.69 µM
same,TGI,[45],20.8 µM
same,GI50,[21],5.79 µM
same,TGI,[21],20.3 µM
same,GI50,[2],1.69 µM
same,TGI,[2],13.8 µM
same,GI50,[3],0.622 µM
same,TGI,[3],2.41 µM
same,GI50,[4],1.88 µM
same,TGI,[4],11.4 µM
same,GI50,[22],3.33 µM
same,TGI,[22],13.1 µM
same,GI50,[23],1.59 µM
same,TGI,[23],6.55 µM
same,GI50,[46],0.391 µM
same,TGI,[46],2.83 µM
same,GI50,[24],5.36 µM
same,TGI,[24],20 µM
same,GI50,[5],2.83 µM
same,TGI,[5],7 µM
same,GI50,[25],1.1 µM
same,TGI,[25],4.74 µM
same,GI50,[47],2.8 µM
same,TGI,[47],7.18 µM
same,GI50,[48],3.75 µM
same,TGI,[48],21.1 µM
same,GI50,[26],0.726 µM
same,TGI,[26],6.91 µM
same,GI50,[27],1.7 µM
same,TGI,[27],11.7 µM
same,GI50,[6],0.807 µM
same,TGI,[6],10.2 µM
same,GI50,[7],1.66 µM
same,TGI,[7],10.7 µM
same,GI50,[8],0.5 µM
same,TGI,[8],2.35 µM
same,GI50,[28],2.79 µM
same,TGI,[28],10.9 µM
same,GI50,[29],1.72 µM
same,TGI,[29],5.93 µM
same,GI50,[30],0.624 µM
same,TGI,[30],10.1 µM
same,GI50,[31],1.25 µM
same,TGI,[31],5.83 µM
same,GI50,[49],1.44 µM
same,TGI,[49],4.61 µM
same,GI50,[32],0.408 µM
same,TGI,[32],10.7 µM
same,GI50,[10],2.18 µM
same,TGI,[10],12.1 µM
same,GI50,[11],1.62 µM
same,TGI,[11],7.87 µM
same,GI50,[50],0.631 µM
same,TGI,[50],3.33 µM
same,GI50,[51],0.984 µM
same,TGI,[51],3.93 µM
same,GI50,[52],16.2 µM
same,TGI,[52],36.1 µM
same,GI50,[12],1.81 µM
same,TGI,[12],8.55 µM
same,GI50,[53],1.35 µM
same,TGI,[53],9.15 µM
same,GI50,[54],2.16 µM
same,TGI,[54],11.2 µM
same,GI50,[33],1.17 µM
same,TGI,[33],11.7 µM
same,GI50,[13],2.34 µM
same,TGI,[13],10.7 µM
same,GI50,[14],2.3 µM
same,TGI,[14],6.38 µM
same,GI50,[34],1.66 µM
same,TGI,[34],4.75 µM
same,GI50,[55],1.03 µM
same,TGI,[55],13.1 µM
same,GI50,[35],2.33 µM
same,TGI,[35],12.3 µM
same,GI50,[56],1.23 µM
same,TGI,[56],9.14 µM
same,GI50,[57],2.01 µM
same,TGI,[57],6.97 µM
same,GI50,[36],2.19 µM
same,TGI,[36],5.43 µM
same,GI50,[37],3.3 µM
same,TGI,[37],11.1 µM
same,GI50,[15],2.43 µM
same,TGI,[15],7.95 µM
same,GI50,[38],0.946 µM
same,TGI,[38],9.94 µM
same,GI50,[58],1.29 µM
same,TGI,[58],12.6 µM
same,GI50,[16],1.14 µM
same,TGI,[16],11.1 µM
same,GI50,[39],0.597 µM
same,TGI,[39],10.8 µM
same,GI50,[17],0.61 µM
same,TGI,[17],11.3 µM
same,GI50,[40],1.4 µM
same,TGI,[40],6.86 µM
same,GI50,[41],3.11 µM
same,TGI,[41],12.4 µM
same,GI50,[59],1.55 µM
same,TGI,[59],10.8 µM
same,GI50,[42],3.94 µM
same,TGI,[42],12.9 µM
same,GI50,[43],1.55 µM
same,TGI,[43],4.01 µM
same,GI50,[18],3.62 µM
same,TGI,[18],17.4 µM
COC(C)(C)[C@@H]1CCCN1C1=C(C)C(=O)OC1,TGI,[19],> 100 µM
same,TGI,[44],> 100 µM
same,TGI,[21],> 100 µM
same,TGI,[2],> 100 µM
same,TGI,[3],> 100 µM
same,TGI,[4],> 100 µM
same,TGI,[23],> 100 µM
same,TGI,[46],> 100 µM
same,TGI,[24],> 100 µM
same,TGI,[5],> 100 µM
same,TGI,[25],> 100 µM
same,TGI,[48],> 100 µM
same,TGI,[27],> 100 µM
same,TGI,[6],> 100 µM
same,TGI,[8],> 100 µM
same,TGI,[29],> 100 µM
same,TGI,[30],> 100 µM
same,TGI,[31],> 100 µM
same,TGI,[9],> 100 µM
same,TGI,[32],> 100 µM
same,TGI,[11],> 100 µM
same,TGI,[50],> 100 µM
same,TGI,[52],> 100 µM
same,TGI,[54],> 100 µM
same,TGI,[13],> 100 µM
same,TGI,[14],> 100 µM
same,TGI,[34],> 100 µM
same,TGI,[55],> 100 µM
same,TGI,[35],> 100 µM
same,TGI,[56],> 100 µM
same,TGI,[57],> 100 µM
same,TGI,[37],> 100 µM
same,TGI,[15],> 100 µM
same,TGI,[38],> 100 µM
same,TGI,[58],> 100 µM
same,TGI,[39],> 100 µM
same,TGI,[40],> 100 µM
same,TGI,[59],> 100 µM
same,TGI,[43],> 100 µM
same,TGI,[18],> 100 µM
